Experimental data taken from article PMC6409085, “Three odorant-binding proteins are involved in the behavioral response of Sogatella furcifera to rice plant volatiles” (PeerJ, 2019).
“And” between values parts separate entries of the source, which are not always exact repeats. Equal entries are not always repeated.

Legend:
[1] = molecular target: SfurOBP1 (Sogatella furcifera, UniProt V5T8N5); assay: biochemical; type: binding; conditions: for Fluorescence competitive binding assay, fluorescence intensity: OBP1, three replicate columns
Chain of SfurOBP1 (V5T8N5 entry or part of it): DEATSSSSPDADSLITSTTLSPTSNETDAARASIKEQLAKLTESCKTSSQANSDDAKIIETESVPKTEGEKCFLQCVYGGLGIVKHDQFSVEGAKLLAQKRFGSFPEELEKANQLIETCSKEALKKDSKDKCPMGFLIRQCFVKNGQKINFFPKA
Summary of the method: (§1)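 Fluorescence competitive binding used 2.0 µM SfurOBP and 2.0 µM 1-NPN reporter in 50 mM Tris-HCl, pH 7.4, with odorants at 2-20 µM. Fluorescence was read 2 min after adding the odorant (excitation 337 nm, emission 390-490 nm), in triplicate. Ki was calculated from IC50 as IC50/(1 + [1-NPN]/K1-NPN).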

[2] = molecular target: SfurOBP11 (Sogatella furcifera, UniProt V5T6E3); assay: biochemical; type: binding
Chain of SfurOBP11 (V5T6E3 entry or part of it): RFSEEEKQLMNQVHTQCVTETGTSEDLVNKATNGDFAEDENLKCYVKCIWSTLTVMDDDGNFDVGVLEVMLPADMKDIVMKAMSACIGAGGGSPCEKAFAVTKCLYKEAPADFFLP
Summary of the method: as §1

[3] = molecular target: SfurOBP2 (Sogatella furcifera, UniProt V5T759); assay: biochemical; type: binding
Chain of SfurOBP2 (V5T759 entry or part of it): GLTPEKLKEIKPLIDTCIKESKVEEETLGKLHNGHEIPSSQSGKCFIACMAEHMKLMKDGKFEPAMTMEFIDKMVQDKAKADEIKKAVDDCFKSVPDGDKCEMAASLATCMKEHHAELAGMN
Summary of the method: as §1

[4] = molecular target: SfurOBP3 (Sogatella furcifera, UniProt V5T818); assay: biochemical; type: binding; conditions: for Fluorescence competitive binding assay, fluorescence intensity: OBP3, three replicate columns;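 as to Fluorescence competitive binding assay, fluorescence intensity: competitor odorant at 2 to 20 µM with protein and 1-NPN both 2.0 µM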
Chain of SfurOBP3 (V5T818 entry or part of it): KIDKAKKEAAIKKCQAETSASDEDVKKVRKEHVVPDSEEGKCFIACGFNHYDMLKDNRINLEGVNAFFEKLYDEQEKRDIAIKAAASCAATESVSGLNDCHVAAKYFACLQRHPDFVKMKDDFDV
Summary of the method: as §1

[5] = tested on: S. furcifera adults; assay: Y-tube olfactometer behavioral trials; type: in vivo, Sogatella furcifera; conditions: odorant 50 µL/L vs hexane; adults
Summary of the method: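 Single S. furcifera adults (2 days post-emergence, starved 0.5 h) chose between odorant (100 µL of 50 µL/L on filter paper) and hexane control in a glass Y-tube, charcoal-filtered humidified air 300 mL/min per arm, 25 ± 1 °C, 50% RH. Choice scored if insect passed half an arm and stayed >1 min within 10 min; 45 insects per compound, chi-squared test.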
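For Fluorescence competitive binding assay, fluorescence intensity in this document: competitor odorant at 2 to 20 µM with protein and 1-NPN both 2.0 µM.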

Structure (SMILES): C=C1CC/C=C(\C)CC[C@@H]2[C@@H]1CC2(C)C [β-caryophyllene]
- IC50 [1]: > 20 µM
- Fluorescence competitive binding assay, fluorescence intensity ([1]; ligand concentration 2 (μM)): 5117 and 5425 and 5286
- Fluorescence competitive binding assay, fluorescence intensity ([1]; ligand concentration 4 (μM)): 6363 and 5644 and 6004
- Fluorescence competitive binding assay, fluorescence intensity ([1]; ligand concentration 6 (μM)): 6522 and 6380 and 7207
- Fluorescence competitive binding assay, fluorescence intensity ([1]; ligand concentration 8 (μM)): 6475 and 7284 and 8411
- Fluorescence competitive binding assay, fluorescence intensity ([1]; ligand concentration 10 (μM)): 6788 and 8986 and 9051
- Fluorescence competitive binding assay, fluorescence intensity ([1]; ligand concentration 12 (μM)): 7963 and 9385 and 12364
- Fluorescence competitive binding assay, fluorescence intensity ([1]; ligand concentration 14 (μM)): 10459 and 9678 and 17343
- Fluorescence competitive binding assay, fluorescence intensity ([1]; ligand concentration 16 (μM)): 9671 and 11754 and 9907
- Fluorescence competitive binding assay, fluorescence intensity ([1]; ligand concentration 18 (μM)): 16605 and 15288 and 16195
- Fluorescence competitive binding assay, fluorescence intensity ([1]; ligand concentration 20 (μM)): 15809 and 13061 and 12977
- IC50 [2]: > 20 µM
- Fluorescence intensity, fluorescence competitive binding assay, OBP11 ([2]; ligand concentration 2, replicate 1): 23970
- Fluorescence intensity, fluorescence competitive binding assay, OBP11 ([2]; ligand concentration 2, replicate 2): 23335
- Fluorescence intensity, fluorescence competitive binding assay, OBP11 ([2]; ligand concentration 2, replicate 3): 21938
- Fluorescence intensity, fluorescence competitive binding assay, OBP11 ([2]; ligand concentration 4, replicate 1): 23122
- Fluorescence intensity, fluorescence competitive binding assay, OBP11 ([2]; ligand concentration 4, replicate 2): 24566
- Fluorescence intensity, fluorescence competitive binding assay, OBP11 ([2]; ligand concentration 4, replicate 3): 25482
- Fluorescence intensity, fluorescence competitive binding assay, OBP11 ([2]; ligand concentration 6, replicate 1): 23526
- Fluorescence intensity, fluorescence competitive binding assay, OBP11 ([2]; ligand concentration 6, replicate 2): 25770
- Fluorescence intensity, fluorescence competitive binding assay, OBP11 ([2]; ligand concentration 6, replicate 3): 26267
- Fluorescence intensity, fluorescence competitive binding assay, OBP11 ([2]; ligand concentration 8, replicate 1): 21931
- Fluorescence intensity, fluorescence competitive binding assay, OBP11 ([2]; ligand concentration 8, replicate 2): 24474
- Fluorescence intensity, fluorescence competitive binding assay, OBP11 ([2]; ligand concentration 8, replicate 3): 27203
- Fluorescence intensity, fluorescence competitive binding assay, OBP11 ([2]; ligand concentration 10, replicate 1): 23853
- Fluorescence intensity, fluorescence competitive binding assay, OBP11 ([2]; ligand concentration 10, replicate 2): 25460
- Fluorescence intensity, fluorescence competitive binding assay, OBP11 ([2]; ligand concentration 10, replicate 3): 25443
- Fluorescence intensity, fluorescence competitive binding assay, OBP11 ([2]; ligand concentration 12, replicate 1): 23639
- Fluorescence intensity, fluorescence competitive binding assay, OBP11 ([2]; ligand concentration 12, replicate 2): 23490
- Fluorescence intensity, fluorescence competitive binding assay, OBP11 ([2]; ligand concentration 12, replicate 3): 23358
- Fluorescence intensity, fluorescence competitive binding assay, OBP11 ([2]; ligand concentration 14, replicate 1): 23808
- Fluorescence intensity, fluorescence competitive binding assay, OBP11 ([2]; ligand concentration 14, replicate 2): 26534
- Fluorescence intensity, fluorescence competitive binding assay, OBP11 ([2]; ligand concentration 14, replicate 3): 25924
- Fluorescence intensity, fluorescence competitive binding assay, OBP11 ([2]; ligand concentration 16, replicate 1): 22662
- Fluorescence intensity, fluorescence competitive binding assay, OBP11 ([2]; ligand concentration 16, replicate 2): 23024
- Fluorescence intensity, fluorescence competitive binding assay, OBP11 ([2]; ligand concentration 16, replicate 3): 23415
- Fluorescence intensity, fluorescence competitive binding assay, OBP11 ([2]; ligand concentration 18, replicate 1): 30250
- Fluorescence intensity, fluorescence competitive binding assay, OBP11 ([2]; ligand concentration 18, replicate 2): 30294
- Fluorescence intensity, fluorescence competitive binding assay, OBP11 ([2]; ligand concentration 18, replicate 3): 30235
- Fluorescence intensity, fluorescence competitive binding assay, OBP11 ([2]; ligand concentration 20, replicate 1): 30296
- Fluorescence intensity, fluorescence competitive binding assay, OBP11 ([2]; ligand concentration 20, replicate 2): 30444
- Fluorescence intensity, fluorescence competitive binding assay, OBP11 ([2]; ligand concentration 20, replicate 3): 30224
- IC50 [3]: 2.93 µM
- Fluorescence competitive binding assay, OBP2 (raw fluorescence reading) ([3]; ligand concentration 2 (unit not given), replicate column 1 of 3): 11458
- Fluorescence competitive binding assay, OBP2 (raw fluorescence reading) ([3]; ligand concentration 2 (unit not given), replicate column 2 of 3): 11327
- Fluorescence competitive binding assay, OBP2 (raw fluorescence reading) ([3]; ligand concentration 2 (unit not given), replicate column 3 of 3): 11281
- Fluorescence competitive binding assay, OBP2 (raw fluorescence reading) ([3]; ligand concentration 4 (unit not given), replicate column 1 of 3): 12040
- Fluorescence competitive binding assay, OBP2 (raw fluorescence reading) ([3]; ligand concentration 4 (unit not given), replicate column 2 of 3): 12315
- Fluorescence competitive binding assay, OBP2 (raw fluorescence reading) ([3]; ligand concentration 4 (unit not given), replicate column 3 of 3): 12582
- Fluorescence competitive binding assay, OBP2 (raw fluorescence reading) ([3]; ligand concentration 6 (unit not given), replicate column 1 of 3): 13825
- Fluorescence competitive binding assay, OBP2 (raw fluorescence reading) ([3]; ligand concentration 6 (unit not given), replicate column 2 of 3): 12794
- Fluorescence competitive binding assay, OBP2 (raw fluorescence reading) ([3]; ligand concentration 6 (unit not given), replicate column 3 of 3): 13738
- Fluorescence competitive binding assay, OBP2 (raw fluorescence reading) ([3]; ligand concentration 8 (unit not given), replicate column 1 of 3): 13150
- Fluorescence competitive binding assay, OBP2 (raw fluorescence reading) ([3]; ligand concentration 8 (unit not given), replicate column 2 of 3): 13647
- Fluorescence competitive binding assay, OBP2 (raw fluorescence reading) ([3]; ligand concentration 8 (unit not given), replicate column 3 of 3): 14723
- Fluorescence competitive binding assay, OBP2 (raw fluorescence reading) ([3]; ligand concentration 10 (unit not given), replicate column 1 of 3): 16274
- Fluorescence competitive binding assay, OBP2 (raw fluorescence reading) ([3]; ligand concentration 10 (unit not given), replicate column 2 of 3): 13413
- Fluorescence competitive binding assay, OBP2 (raw fluorescence reading) ([3]; ligand concentration 10 (unit not given), replicate column 3 of 3): 15514
- Fluorescence competitive binding assay, OBP2 (raw fluorescence reading) ([3]; ligand concentration 12 (unit not given), replicate column 1 of 3): 16497
- Fluorescence competitive binding assay, OBP2 (raw fluorescence reading) ([3]; ligand concentration 12 (unit not given), replicate column 2 of 3): 15342
- Fluorescence competitive binding assay, OBP2 (raw fluorescence reading) ([3]; ligand concentration 12 (unit not given), replicate column 3 of 3): 16204
- Fluorescence competitive binding assay, OBP2 (raw fluorescence reading) ([3]; ligand concentration 14 (unit not given), replicate column 1 of 3): 16950
- Fluorescence competitive binding assay, OBP2 (raw fluorescence reading) ([3]; ligand concentration 14 (unit not given), replicate column 2 of 3): 15785
- Fluorescence competitive binding assay, OBP2 (raw fluorescence reading) ([3]; ligand concentration 14 (unit not given), replicate column 3 of 3): 16267
- Fluorescence competitive binding assay, OBP2 (raw fluorescence reading) ([3]; ligand concentration 16 (unit not given), replicate column 1 of 3): 16569
- Fluorescence competitive binding assay, OBP2 (raw fluorescence reading) ([3]; ligand concentration 16 (unit not given), replicate column 2 of 3): 16590
- Fluorescence competitive binding assay, OBP2 (raw fluorescence reading) ([3]; ligand concentration 16 (unit not given), replicate column 3 of 3): 16267
- Fluorescence competitive binding assay, OBP2 (raw fluorescence reading) ([3]; ligand concentration 18 (unit not given), replicate column 1 of 3): 20111
- Fluorescence competitive binding assay, OBP2 (raw fluorescence reading) ([3]; ligand concentration 18 (unit not given), replicate column 2 of 3): 21295
- Fluorescence competitive binding assay, OBP2 (raw fluorescence reading) ([3]; ligand concentration 18 (unit not given), replicate column 3 of 3): 20566
- Fluorescence competitive binding assay, OBP2 (raw fluorescence reading) ([3]; ligand concentration 20 (unit not given), replicate column 1 of 3): 21451
- Fluorescence competitive binding assay, OBP2 (raw fluorescence reading) ([3]; ligand concentration 20 (unit not given), replicate column 2 of 3): 21222
- Fluorescence competitive binding assay, OBP2 (raw fluorescence reading) ([3]; ligand concentration 20 (unit not given), replicate column 3 of 3): 20042
- IC50 [4]: > 20 µM
- Fluorescence competitive binding assay, fluorescence intensity ([4]; ligand concentration 2): 59910 and 62614 and 72673
- Fluorescence competitive binding assay, fluorescence intensity ([4]; ligand concentration 4): 64089 and 65130 and 67441
- Fluorescence competitive binding assay, fluorescence intensity ([4]; ligand concentration 6): 62365 and 65722 and 64412
- Fluorescence competitive binding assay, fluorescence intensity ([4]; ligand concentration 8): 61822 and 63261 and 63413
- Fluorescence competitive binding assay, fluorescence intensity ([4]; ligand concentration 10): 59908 and 63429 and 67892
- Fluorescence competitive binding assay, fluorescence intensity ([4]; ligand concentration 12): 56993 and 56771 and 64941
- Fluorescence competitive binding assay, fluorescence intensity ([4]; ligand concentration 14): 61557 and 60060 and 62301
- Fluorescence competitive binding assay, fluorescence intensity ([4]; ligand concentration 16): 39308 and 53990 and 51354
- Fluorescence competitive binding assay, fluorescence intensity ([4]; ligand concentration 18): 76113 and 82456 and 70640
- Fluorescence competitive binding assay, fluorescence intensity ([4]; ligand concentration 20): 72444 and 66812 and 61866
- number of insects choosing hexane arm [5]: 15
- number of insects choosing volatilies arm [5]: 16
- number of insects failed (no choice) [5]: 9
